Results on seven compounds are retold here after ChEMBL document CHEMBL1201862, “PubChem BioAssay data set” (2004).

Common to all, as to assay: NCI anticancer screen, dose series, 48 h
Experiment [1] relates to A549.
The test system of experiment [2] is ACHN.
Experiment [3] has as its system CAKI-1.
In experiment [4] the test system is HOP-62.
Experiment [5] has as its system HT-29.
For experiment [6], the system named is MCF7.
In experiment [7] the test system is MDA-MB-231.
Experiment [8] concerns MDA-MB-435.
The subject of experiment [9] is NCI-H23.
For experiment [10], the system named is NCI-H522.
In experiment [11] the test system is NCI/ADR-RES.
The test system of experiment [12] is OVCAR-8.
Experiment [13] deals with SF-295.
The subject of experiment [14] is SF-539.
Experiment [15] has as its system SK-MEL-28.
In experiment [16] the test system is SK-MEL-2.
The test system of experiment [17] is SK-OV-3.
In experiment [18] the test system is SNB-19.
Experiment [19] has as its system SNB-75.
The subject of experiment [20] is T47D.

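In this assay, cells in 96-well plates receive the compound at five concentrations for 48 hours. Endpoints are linearly interpolated between the surrounding concentrations. Here, GI50 denotes the concentration required for 50% inhibition of growth.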 The source made the active and inactive calls. Cut-off read from the data, not from the text of the source: active = GI50 up to about 1.1 µM and inactive = higher.

`CC1CC(C(=O)OC2OC(COC3OC(CO)C(OC4OC(C)C(O)C(O)C4O)C(O)C3O)C(O)C(O)C2O)C2CCC3(C)C(=CCC4(C)C3CCC3C(C)(CO)C(O)C(O)CC34C)C2C1C` (stereo not given): the GI50 is 96.6 µM (inactive) in experiment [1]; > 10 µM (inactive) in experiment [2]; > 100 µM (inactive) in experiment [3]; 17.7 µM (inactive) in experiment [4]; 21.8 µM (inactive) in experiment [5]; 23.7 µM (inactive) in experiment [6]. Further, the GI50 in [7] was 17.9 µM (inactive); in experiment [8] it was 18.6 µM (inactive); in experiment [9] it was 16.3 µM (inactive); in experiment [10] it was 13.7 µM (inactive); in experiment [11], > 100 µM (inactive); in experiment [12], 17.4 µM (inactive). Further, the GI50 in experiment [13] was 28.8 µM (inactive); in [14], 18.4 µM (inactive); in experiment [15], 17 µM (inactive); in experiment [16], 18.9 µM (inactive); in [17] it was 49.1 µM (inactive); in experiment [18], 17.4 µM (inactive). Further, the GI50 in experiment [19] is 16.9 µM (inactive); in [20], 18.4 µM (inactive).

For the compound `COc1ccc(CSC2=C(C#N)C(=O)NC3(CCCCC3)S2)cc1`, the GI50 is > 83.8 µM (inactive) in [1]; > 93.5 µM (inactive) in [2]; 77.6 µM (inactive) in experiment [3]; 61.8 µM (inactive) in [4]; 38.1 µM (inactive) in [5]; 34.2 µM (inactive) in experiment [6]. Besides, the GI50 was > 76.4 µM (inactive) in experiment [7]; 19 µM (inactive) in experiment [8]; 48.8 µM (inactive) in experiment [9]; 24.2 µM (inactive) in [10]; 49.7 µM (inactive) in experiment [11]; > 59.3 µM (inactive) in experiment [12]. Moreover, the GI50 in experiment [13] was 51.6 µM (inactive); in experiment [14] it was > 56.6 µM (inactive); in [15], > 73.6 µM (inactive); in experiment [16], 38.6 µM (inactive); in experiment [17] it was 44.7 µM (inactive); in experiment [18] it was 54.5 µM (inactive). Moreover, the GI50 is 62.2 µM (inactive) in experiment [19] and 27.5 µM (inactive) in experiment [20].

Take `CSc1nc2cc(S(=O)(=O)N3CCCCC3)ccc2s1`: the GI50 in [1] was > 100 µM (inactive); in [2], > 100 µM (inactive); in [3] it was > 100 µM (inactive); in [4], 57 µM (inactive); in experiment [5], > 100 µM (inactive); in experiment [6], > 100 µM (inactive). Also, the GI50 in experiment [7] is > 100 µM (inactive); in experiment [8] it was > 100 µM (inactive); in experiment [9] it was > 100 µM (inactive); in [10], 79.1 µM (inactive); in experiment [11], > 100 µM (inactive); in [12], > 100 µM (inactive). Moreover, the GI50 was 28 µM (inactive) in experiment [13]; > 100 µM (inactive) in experiment [14]; > 100 µM (inactive) in experiment [15]; > 100 µM (inactive) in experiment [16]; > 100 µM (inactive) in experiment [17]; > 100 µM (inactive) in experiment [18]. Further, the GI50 in [19] is 61.4 µM (inactive); in [20], > 100 µM (inactive).

With `CN(C)CCCNC(=O)c1cc(NC(=O)c2cc(NS(=O)(=O)c3ccc4c(c3)C(=O)c3ccccc3C4=O)cn2C)cn1C`, the GI50 in [1] was > 100 µM (inactive); in [2], > 100 µM (inactive); in experiment [3] it was > 100 µM (inactive); in experiment [4] it was > 100 µM (inactive); in experiment [5], 65.3 µM (inactive); in experiment [6] it was 31.8 µM (inactive). Further, the GI50 in experiment [7] was > 100 µM (inactive); in experiment [8] it was 83.8 µM (inactive); in experiment [9], > 100 µM (inactive); in experiment [10], 93.5 µM (inactive); in experiment [11], > 100 µM (inactive); in experiment [12] it was > 100 µM (inactive). The GI50 in [13] is > 100 µM (inactive); in experiment [14] it was > 100 µM (inactive); in experiment [15] it was 86.5 µM (inactive); in [16], > 100 µM (inactive); in [17], < 0.01 µM (active); in experiment [18], 41.5 µM (inactive). For the same compound, the GI50 in experiment [19] and in experiment [20] was > 100 µM (inactive) in each case.

For the compound `OCc1ccc2c(c1)CC1(Cc3ccc(/C=N/O)cc3C1)C2` (stereo not given), the GI50 in experiment [1] was 4.93 µM (inactive); in [2] it was 7.08 µM (inactive); in experiment [3], 7.8 µM (inactive); in experiment [4] it was 5.45 µM (inactive); in [5] it was 1.89 µM (inactive); in experiment [6], 2 µM (inactive). The GI50 in experiment [7] was 6.27 µM (inactive); in [8], 0.445 µM (active); in experiment [9], 3.19 µM (inactive); in [10] it was 2.08 µM (inactive); in experiment [11], 3.32 µM (inactive); in experiment [12], 4.45 µM (inactive). Besides, the GI50 in [13] is 2.43 µM (inactive); in experiment [14], 2.72 µM (inactive); in [15] it was 6.82 µM (inactive); in experiment [16], 7.26 µM (inactive); in [17], 6.05 µM (inactive); in [18], 5.35 µM (inactive). For the same compound, the GI50 in [19] is 2.88 µM (inactive); in [20], 11.3 µM (inactive).

In the case of `O=C1/C(=C/c2ccccc2)CCc2ccc([N+](=O)[O-])cc21`, the GI50 is > 100 µM (inactive) in [1]; 40.4 µM (inactive) in experiment [2]; > 100 µM (inactive) in [3]; > 71.3 µM (inactive) in experiment [4]; > 100 µM (inactive) in experiment [5]; 4.17 µM (inactive) in experiment [6]. Further, the GI50 in [7] was 69.3 µM (inactive); in experiment [8], 40.8 µM (inactive); in experiment [9], 34.7 µM (inactive); in [10] it was 3.31 µM (inactive); in [11] it was 43.6 µM (inactive); in experiment [12] it was 82.6 µM (inactive). Besides, the GI50 in [13] was 33 µM (inactive); in experiment [14], 64.3 µM (inactive); in [15] it was > 81.8 µM (inactive); in experiment [16], 13.6 µM (inactive); in experiment [17], 41 µM (inactive); in experiment [18] it was 27.2 µM (inactive). The GI50 in [19] was 37.3 µM (inactive); in [20], > 51.6 µM (inactive).

Turning to `c1ccc(/N=C2\c3ccccc3CN2c2ccccc2)cc1`, the GI50 in [1], in experiment [2], in [3], in experiment [4], in [5] and in experiment [6] was > 100 µM (inactive) in each case. Further, the GI50 in experiment [7], in experiment [8], in [9], in experiment [10], in experiment [11] and in [12] was > 100 µM (inactive) throughout. Further, the GI50 in experiment [13], in [14], in experiment [15], in experiment [16], in experiment [17] and in experiment [18] was > 100 µM (inactive) in each case. Moreover, the values for the GI50 in experiment [19] and in experiment [20] were 74.3 µM (inactive) and 80.2 µM (inactive), respectively.
